Our source for the RP-LC retention time values is the METLIN SMRT retention time set (Domingo-Almenara et al. 2019).

Structures are written as SMILES.

This data set in a line: gradient 5% acetonitrile 3 min, to 50% in 2 min, to 85% in 15 min, held 3 min, 100 µL/min. The conditions noted are these: column: Zorbax Extend-C18 2.1 x 50 mm; eluents: water / acetonitrile, 0.1% formic acid. Put shortly:
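Values are retention times taken from adduct peaks that software picked and an analyst inspected. The pure standards were run as mixtures of ~100 molecules on HPLC linked to a quadrupole time-of-flight mass spectrometer, in positive and negative ionization mode. A Zorbax Extend-C18 column (2.1 × 50 mm, 1.8 μm) was used at 100 μL/min with water and acetonitrile, each including 0.1% formic acid.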
Consider `O=C1COc2cc(S(=O)(=O)N3CCCC3C(=O)NC3CCCCCC3)c(Cl)cc2N1` (centres undefined), for which the RP-LC retention time turned out to be 819 s. `Cc1nnc(NC(=O)Cc2csc(NC(=O)C3CCCC3)n2)s1` returned an RP-LC retention time of 677 s. As to `O=C1CCCc2cc(S(=O)(=O)NCCCN3CCN(Cc4ccccc4)CC3)ccc2N1`, the RP-LC retention time was 581 s. The molecule `Cc1ccc(CNC(=O)C2CCCN(c3nc4ccsc4c(=O)n3Cc3ccc(F)cc3)C2)cc1` (centres undefined) returned an RP-LC retention time of 1010 s.

Regarding `Cc1nn(-c2ccc(-c3ccccc3)nn2)c(C)c1S(=O)(=O)NCc1ccc(F)cc1`, the RP-LC retention time worked out at 988 s.

`O=c1n(Cc2ccccc2F)nc2c(S(=O)(=O)N3CCc4ccccc4C3)cccn12` came in with an RP-LC retention time of 947 s.

`COc1ccccc1CNC(=O)CSc1ccc(-c2ccccn2)nn1` showed an RP-LC retention time of 713 s. For `O=C1CC2(CCN(S(=O)(=O)c3ccc([N+](=O)[O-])cc3)CC2)Oc2ccccc21`, the RP-LC retention time worked out at 907 s. The result for `CCc1ccc(OCC(=O)N2CCCCC2CCN2CCCCC2)cc1` (centres undefined) reads 703 s; that for `CSc1nnc(-c2nn(C)c3c2CN(C(=O)c2ccccc2)CC3)n1C`, 680 s. The result for `CCNC(=O)c1c2c(nc3ccc(F)cc13)CCCC2` reads 588 s; that for `CCc1ccc(S(=O)(=O)N2CC(F)(F)C[C@H]2c2nnc(C)o2)cc1`, 858 s; that for `Cc1ccc(CN2CCc3nc(N4CCN(c5ccccc5F)CC4)ncc3C2)cc1`, 824 s. Turning to `Cc1ccc2c(Nc3cccc(Br)c3)c(C(=O)N3CCOCC3)cnc2n1`, the RP-LC retention time was found to be 611 s. The result for `O=C(CCc1c(-c2ccccc2)nc2ccccn12)Nc1cccc(Cl)c1` reads 692 s; that for `NC(=O)c1cc(=O)[nH]c2ccccc12`, 546 s; that for `CCN1C(=O)COc2ccc(-c3noc(-c4cccc(OC)c4OC)n3)cc21`, 1060 s. The value for `c1ccc(-n2ncc3cccnc32)cc1` was 624 s; that for `CCC(CC)C(=O)N1CCC2(CC1)C(=O)N(C)c1ccccc12` was 850 s. The value for `O=C(CN1CCN(C(=O)Nc2ccc(Br)cc2)CC1=O)NCCN1CCCCC1` was 602 s. `Cc1ccc(C(=O)N2CCCCCCNC(=O)[C@@H]3CCC[C@@H]32)s1`: the RP-LC retention time came out at 792 s. The result for `Cc1ccc(NC(=O)Cn2nc(N3CCCC3)c3ccccc3c2=O)cc1Cl` reads 1060 s; that for `CCOc1cc(=O)n2c(c1C(=O)Nc1ccc(Br)c(C)c1)CCCC2`, 848 s. Molecule `CCc1ccc(NC(=O)N2CCN(c3cnn4c(CC)nnc4c3)CC2)cc1` displayed an RP-LC retention time of 698 s. The value for `CCN1CCN(C(=O)C2Cc3cc(S(=O)(=O)N4CCOCC4)ccc3N2C(C)=O)CC1` (centres undefined) was 578 s; that for `CC(C)Cn1cc(CCNC(=O)c2cc(F)ccc2F)c2cccnc21` was 868 s; that for `COc1ccc(-c2nc(NC3CCCCCC3)c3ccccc3n2)cc1` was 934 s. The result for `Cc1nc(-n2cccc2)sc1C(=O)NCc1ccc(C(C)C)cc1` reads 1130 s.

As to `Cc1cc(C)n(-c2ccc(Nc3ccc(NS(=O)(=O)c4cccc(F)c4)cc3)nn2)n1`, the RP-LC retention time is 817 s. `C=CCNC(=O)c1ccc2c(c1)c(C)c(C)n2C` yielded an RP-LC retention time of 828 s. The value for `CCc1nc(NC(=O)Cn2nc3c(cc2=O)CCCC3)sc1C` was 764 s. The value for `O=C(C1CC1)N1CCc2sc(S(=O)(=O)Nc3ccc(Cl)cc3)cc2C1` was 853 s; that for `CNC(=O)C1CCCN(c2nc3ncn(CC(=O)Nc4cccc(SC)c4)c(=O)c3s2)C1` (centres undefined) was 669 s; that for `Cc1cc(C)n(-c2ccnc(N3CCc4ccccc4C3)n2)n1` was 1150 s.
